{"source": "patent US6525001B1", "about": "“Substituted pyrimidine and pyridine herbicides” (Mid-American Commercialization Corporation, priority 1997, dated 2003)", "format_in_all_cases": "in vivo", "key": {"[1]": {"test_system": "barnyardgrass (Echinochloa crus-galli)", "test": "Test E pre-/postemergence/post directed", "set-up": "key: 0 is no injury; 100 is complete control", "details": "PREEMERGENCE", "procedure,_shortened": "(§1)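 Injury was scored visually on a 0 to 100 scale (100 = complete control) 13 to 21 days after treatment of greenhouse-grown plants. Test chemicals, in a surfactant-containing non-phytotoxic solvent, were sprayed onto soil within a day of planting, onto plants at the two to four leaf stage, or directed at the base of the plants.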"}, "[2]": {"test_system": "wild buckwheat (Polygonum convolvulus)", "test": "Test D", "set-up": "key: 0 is no effect; 10 is complete control", "details": "PREEMERGENCE, Rate 62 g/ha"}, "[3]": {"test_system": "bermudagrass (Cynodon dactylon)", "test": "Test E pre-/postemergence/post directed", "set-up": "key: 0 is no injury; 100 is complete control", "details": "POSTEMERGENCE", "procedure,_shortened": "as §1"}, "[4]": {"test_system": "Italian ryegrass (Lolium multiflorum)", "test": "Test D", "set-up": "key: 0 is no effect; 100 is complete control", "details": "PREEMERGENCE"}, "[5]": {"test_system": "barnyardgrass (Echinochloa crus-galli)", "test": "Test E pre-/postemergence/post directed", "set-up": "key: 0 is no effect; 100 is complete control", "details": "PREEMERGENCE", "procedure,_shortened": "as §1"}}}
{"smiles": "Cc1cnc(-c2ccc(C(F)(F)F)cc2)nc1Cc1cccc(OC(F)(F)F)c1", "note": "[Compound 15]", "values": [{"measurement": "Plant response rating, Barnyardgrass", "setting": "[1]; Rate 32 g/ha", "result": 0}, {"measurement": "Plant response rating, Barnyardgrass", "setting": "[1]; Rate 64 g/ha", "result": 0}]}
{"smiles": "CCc1cnc(-c2ccc(C(F)(F)F)cc2)nc1Cc1cccc(C(F)(F)F)c1", "note": "[Compound 22]", "values": [{"measurement": "Plant response rating, Wild buckwheat", "setting": "[2]", "result": 0}]}
{"smiles": "Cc1cnc(-n2cnc(C(F)(F)F)c2)nc1Cc1cccc(C(F)(F)F)c1", "note": "[Compound 44]", "values": [{"measurement": "Plant response rating, Bermudagrass", "setting": "[3]; Rate 125 g/ha", "result": 0}, {"measurement": "Plant response rating, Bermudagrass", "setting": "[3]; Rate 250 g/ha", "result": 0}]}
{"smiles": "Cc1cnc(-c2ccc(C(F)(F)F)cc2)nc1Cc1cccc(C(F)(F)F)c1", "note": "[Example 1, 5-methyl-2-[4-(trifluoromethyl)phenyl]-4-[[3-(trifluoromethyl)phenyl]methyl]pyrimidine]", "values": [{"measurement": "Plant response rating, I. Ryegrass", "setting": "[4]; Rate 125 g/ha", "result": 100}, {"measurement": "Plant response rating, I. Ryegrass", "setting": "[4]; Rate 250 g/ha", "result": 100}]}
{"smiles": "Cc1cnc(-n2ccc(C(F)(F)F)n2)nc1Cc1cccc(C(F)(F)F)c1", "note": "[Example 2, 5-methyl-4-[[3-(trifluoromethyl)phenyl]methyl]-2-[3-(trifluoromethyl)-1H-pyrazol-1-yl]pyrimidine]", "values": [{"measurement": "Plant response rating, Barnyardgrass", "setting": "[5]; Rate 125 g/ha", "result": 100}, {"measurement": "Plant response rating, Barnyardgrass", "setting": "[5]; Rate 250 g/ha", "result": 100}]}
